Results: US20250276066A1, “METHODS, COMPOSITIONS AND COMPOUNDS FOR TREATING AGE-RELATED DISEASES AND CONDITIONS” (GERO PTE. LTD., priority 2021, published 2025)
Where two headings read alike, the source gives them in different places.

Legend:
C. elegans = C. elegans lifespan screening (survival) assay; type: in vivo, Caenorhabditis elegans; settings: for Mean LS ext., %: mean lifespan extension vs control, doses (uM); for Mean LS*: mean lifespan, dose uM: Panobinostat 1, Entinostat 10, Topotecan 5, PI-103 10, PHA-793887 10, Triptolide 10, KU-0063794 10, Trichostatin A 2, control 22.2 d
Text: • 1. […] Then, with the help of linear gene-wise regression, we identified the transcriptomic aging signature, the list of genes that have statistically significant association with age rescaled by lifespan (the first list). • 3. Genes in the aging signature that have positive correlation with age rescaled by lifespan are over-expressed in late life of the animals, and if a gene's correlation is negative its gene expression decreases with age. • 4. […] The identified aging signature represents a vector of the aging-related changes of gene expression. […] This was done by projecting out all gene expression changes along the aging signature. • 6. After that, by gene-wise linear regression, we identified the list of genes that had statistically significant correlation with lifespan of long-lived strains. That list represents the PI3K-null signature. Genes in the PI3K-null signature that have positive correlation with lifespan are over-expressed in long-lived strains, and vise versa, genes with negative correlations have lower gene expression levels in long-lived mutants with respect to the control lines. • 7. […] Therefore, we would affect the aging process and either slow-down it or reverse it. • 8. We combined those lists, and identified the lists of their human orthologs. • 9. The inhibition of these genes or/and the proteins translated from those genes in humans will also produce life-extending effects. • 10. The predictive value of the aging signature was previously experimentally tested in paper. Along the lines of paper, to test the predictive value of the PI3K-null signature, we identified novel life-extending pharmacological interventions by comparing this signatures with gene expression profile changes in response to pharmacologic perturbations from the Connectivity Map (CMAP) database. Using the PI3K-null signature, we predicted perturbagen-compounds opposing the transcriptomic signature distinguishing long-lived C. elegans mutant strains with a slow aging rate from short-lived strains with a fast aging rate (see Table […] and T1b). To eliminate the confounding effect of different biological ages of nematodes in experimental cohorts, we applied the algorithm developed earlier. From the top of predicted compounds, we selected 8 compounds for a follow-up lifespan screening in C. elegans assay (see Figure F1, Table T2). • 11. We successfully tested the selected compounds in C. elegans survival assay (see Figure F1, Table T2). All 8 compounds produced a significant lifespan extension effect (according to the Log-rank Mantel-Cox method, all results are with p<0.05). Therefore, we experimentally validated the PI3K-null signature's pipeline for the identification of new life-extending compounds. • 12. […] CDK7, CHEK2, CAPN1, CTSB, HSP90AB1, HSP90AA1, HSPA5, NFKB1, NPC1, PABPC1, ABCB11, ABCB1, PLK1, PLK3, ADRA2A, ADRA2C, ADRA2B, TUBB6, SENP8, SENP6, SENP7, MMP14, MMP13, MMP8, MMP3, MMP1, MAPKAPK2, CTSL, CTSK, CTSS, ATXN2, TBXAS1, CREBBP, PDGFRA, FLT4, FLT1, KDR, PDGFRB, FLT3, KIT, CSF1R, IKBKB, IKBKE, PGGT1B, FAAH, GFER, MAPK14, MAPK12, PRKAA1, ABCG2, ADAM17, BACE2, BACE1, TUBB6, CA7, CA2, CA1, CA5A, CA12, CA9, CA4, CTSB, FEN1, HDAC1, HDAC2, HDAC3, CBX1, SLC6A4, SLC6A2, SLC6A3, PPARD, PPARG, PPARA, PSEN2, HTR7, ADRA1B, SMN2, FYN, SRC, LCK, LYN, TARDBP, CLK2, CLK4, USP2, GBA, RECQL, BLM, WRN, CDK2, PRKAG3, TFPI, LTA4H, DPP7, BACE2, BACE1, CAPN1, CTSB, IGF1R, INSR, EYA2, HSPA5, NFKB1, TCF7L2, TARDBP, BRD4. • 13. […] Lifespan assays were conducted at 20° C., as described previously. Briefly, synchronous cultures were initiated by lysis of gravid hermaphrodites in alkaline hypochlorite. Worms were selected at the L4 larval stage, placed 50 worms per plate, and transferred at 1- to 2-day intervals onto fresh plates during days 1-7, and at 2- to 3-day intervals after that. […]

mice given Doxorubicin = assay: Example 33: doxorubicin-induced liver damage (plasma AST); settings: mouse, in vivo
Description: Doxorubicin if administered by mice reduces total body weight and induces expression of FOXO4 foci and IL-6 in the liver.
On the indicated time points, whole blood samples are collected in a Microvette with Lithium Heparin (Sarstedt) for plasma separation and spun for 10 min at 4.6×g. The (clear) supernatant is transferred into regular 1.5 ml tubes and spun again for 5 min at 4.6×g. The supernatants are transferred again into 1.5 ml tubes, snap frozen in liquid N2 and stored at −80° C. [AST] is measured using an AST Activity Assay Kit (Sigma). The samples are incubated with 100 μl reaction mix in a 96 well plate and place at 37° C. The absorbance at 450 nm is determined after 2 minutes for baseline analysis and after 40 minutes for a final analysis. [Urea] is measured using a QuantiChrom Urea Assay Kit (Gentaur). The samples are incubated in 200 μl reaction mix for 10 minutes at room temperature before absorbance is measured at 520 nm. [Creatinine] is measured using Creatinine Assay Kit (Sigma). Samples are incubated with 50 μl reaction mix at 37° C. for 60 minutes and the absorbance is measured at 570 nm. Ratios comparing plasma values after treatment compared to baseline are determined and plotted as % over baseline in scatter plots.

[1] = patient; cited from earlier work
CIA-induced DBA/1J mice = assay: Example 30: collagen-induced arthritis (CIA); type: in vivo; settings: 0.2 mg/kg
D. melanogaster = settings: cited from earlier work
Caenorhabditis elegans = settings: not replicated in another study; cited from earlier work

Compound: Cc1[nH]c2ccccc2c1CCNCc1ccc(/C=C/C(=O)NO)cc1 [Compound 1, Panobinostat]
- Mean LS ext., % (C. elegans): 8.1%
- Mean LS* (C. elegans): 24 days

Compound: Nc1ccccc1NC(=O)c1ccc(CNC(=O)OCc2cccnc2)cc1 [Compound 2, Entinostat]
- Mean LS ext., % (C. elegans): 8.6%
- Mean LS* (C. elegans): 24.1 days

Compound: CC[C@@]1(O)C(=O)OCc2c1cc1n(c2=O)Cc2cc3c(CN(C)C)c(O)ccc3nc2-1 [Compound 3, Topotecan]
- Mean LS ext., % (C. elegans): 9.7%
- Mean LS* (C. elegans): 24.3 days

Compound: Oc1cccc(-c2nc(N3CCOCC3)c3oc4ncccc4c3n2)c1 [Compound 4, PI-103]
- Mean LS ext., % (C. elegans): 8.6%
- Mean LS* (C. elegans): 24.1 days

Compound: CC(C)CC(=O)Nc1[nH]nc2c1CN(C(=O)C1CCN(C)CC1)C2(C)C [Compound 5, PHA-793887]
- Mean LS ext., % (C. elegans): 6.9%
- Mean LS* (C. elegans): 23.7 days

Compound: CC(C)[C@]12O[C@H]1[C@@H]1O[C@]13[C@]1(O[C@H]1C[C@H]1C4=C(CC[C@@]13C)C(=O)OC4)[C@@H]2O [Compound 6, Triptolide]
- Mean LS ext., % (C. elegans): 10%
- Mean LS* (C. elegans): 24.4 days

Compound: COc1ccc(-c2ccc3c(N4CCOCC4)nc(N4C[C@@H](C)O[C@@H](C)C4)nc3n2)cc1CO [Compound 7, KU-0063794]
- Mean LS ext., % (C. elegans): 10.6%
- Mean LS* (C. elegans): 24.5 days

Compound: CC(/C=C/C(=O)NO)=C\[C@@H](C)C(=O)c1ccc(N(C)C)cc1 [Compound 8, Trichostatin A]
- Mean LS ext., % (C. elegans): 10%
- Mean LS* (C. elegans): 24.4 days

Compound: COc1cccc2c1C(=O)c1c(O)c3c(c(O)c1C2=O)C[C@@](O)(C(=O)CO)C[C@@H]3O[C@H]1C[C@H](N)[C@H](O)[C@H](C)O1 [Doxorubicin]
- plasma levels of Aspartate Aminotransferase, AST (mice given Doxorubicin): strongly induce plasma levels of Aspartate Aminotransferase
- total lifetime dose above which myocardial damage may lead to congestive heart failure [1]: exceeds 550 mg/m^2

Compound: CN(Cc1cnc2nc(N)nc(N)c2n1)c1ccc(C(=O)N[C@@H](CCC(=O)O)C(=O)O)cc1 [MTX, methotrexate]
- development of arthritis (CIA-induced DBA/1J mice): strong inhibitory effect on the development of arthritis

Compound: O=C(c1ccc(F)cc1)C1CCN(CCn2c(=O)[nH]c3ccccc3c2=O)CC1 [ketanserin]
- lifespan (D. melanogaster; fixed-diet conditions): did not affect lifespan
- lifespan (D. melanogaster; flies allowed to chose nutrients): increased lifespan

Compound: CN1CCN2c3ccccc3Cc3ccccc3C2C1 (stereo not shown) [mianserin]
- lifespan (prolongevity effect) (Caenorhabditis elegans): prolongevity effect
